Results reported in PMC11460631, “Inhibition of transient receptor potential vanilloid 3 channels by antimalarial hydroxychloroquine alleviates TRPV3-dependent dermatitis” (The Journal of Biological Chemistry, 2024).

What was measured:
[1] = molecular target: T1, TRPV3 L591A mutant (Homo sapiens, UniProt Q8NET8, L591A); experiment: Whole-cell recording of TRPV3 L591A mutant; type: cell-based
T1 construct: YFP or GFP; expressed in transfected cells; host or cells: HEK293T
T1 sequence (Q8NET8 1-790 L591A): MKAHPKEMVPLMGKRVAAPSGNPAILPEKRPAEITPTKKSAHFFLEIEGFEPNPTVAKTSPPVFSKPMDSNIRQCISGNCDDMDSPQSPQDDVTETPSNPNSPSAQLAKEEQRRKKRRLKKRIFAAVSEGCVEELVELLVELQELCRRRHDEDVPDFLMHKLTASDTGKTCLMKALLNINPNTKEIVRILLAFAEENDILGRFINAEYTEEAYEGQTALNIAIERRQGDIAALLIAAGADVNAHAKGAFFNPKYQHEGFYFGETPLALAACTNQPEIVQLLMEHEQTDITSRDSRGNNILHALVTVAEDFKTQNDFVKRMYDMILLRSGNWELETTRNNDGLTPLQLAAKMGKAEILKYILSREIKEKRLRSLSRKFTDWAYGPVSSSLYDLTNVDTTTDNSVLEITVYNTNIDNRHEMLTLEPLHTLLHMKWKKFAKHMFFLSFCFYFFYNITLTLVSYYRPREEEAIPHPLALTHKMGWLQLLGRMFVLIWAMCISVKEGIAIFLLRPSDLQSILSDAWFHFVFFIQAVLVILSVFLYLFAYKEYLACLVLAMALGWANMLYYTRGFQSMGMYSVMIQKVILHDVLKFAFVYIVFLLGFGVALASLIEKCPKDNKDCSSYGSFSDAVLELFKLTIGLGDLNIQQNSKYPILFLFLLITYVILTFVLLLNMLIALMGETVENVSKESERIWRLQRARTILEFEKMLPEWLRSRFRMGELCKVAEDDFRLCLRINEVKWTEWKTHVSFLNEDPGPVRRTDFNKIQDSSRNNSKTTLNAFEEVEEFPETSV
Source text: As we mentioned above, HCQ may act as a pore blocker of TRPV3. To probe the binding configuration of HCQ to TRPV3, we carried out molecular docking using Rosetta suite (https://rosettacommons.org) ([21]) and validated the docking models with point mutations in TRPV3 (Fig. 4A). […] Furthermore, when we introduced L670A to L591A mutant, we also observed a left shift on the concentration–response curve on this double mutant as compared to L591A mutant (Fig. 4H).
Figure 4 Residues of the pore domain are critical for HCQ inhibition on TRPV3.A, left panel, docking model of HCQ to the pore domain of TRPV3 structure (6uw4). Right panels, top view and side view of the HCQ-binding pocket. B-J, representative whole-cell recording of TRPV3 and mutants in response to 1 mM 2-APB, the mixture of 1 mM 2-APB and concentration gradients of HCQ with the holding potential of ± 80 mV. K, concentration–response curves of HCQ in WT TRPV3 and mutants (n = 3–5 cells). L, quantification of the inhibitory ratio of HCQ (100 μM) on WT, L591A, and N671Q. […]
All data from whole-cell recordings were analyzed in Igor Pro (WaveMetrics). IC50 values were determined by fitting the Hill equation to concentration-response relationships. […]

[2] = tested on: TNF-α, IL-6, IgE, IL-4 in mouse dorsal skin tissues; experiment: Carvacrol-induced AD-like mouse model: inflammatory factors by ELISA; type: in vivo
Procedure: We therefore generated a carvacrol-induced AD mouse model to test the effect of HCQ.
To generate an AD-like mice model, 2% carvacrol (dissolved in 30% ethanol solution) was topically smeared onto the mice dorsum 1 day after hair removal with a depilatory cream (Vetin Depilatory Cream). Mice received a topical administration of an equal volume (200 μl) of 2% carvacrol or in the presence of 2 mg/ml HCQ. […] After the application of carvacrol for 5 days, the external appearance of mice was photographed and then sampled. The external appearance was graded based on three aspects: thickness, erythema/bleeding, and dryness/desquamation, with severity assessed on a score of 0 to 4. The degree of thickness was measured by the thickness of the skin in H&E staining. Skin tissues were either fixed in 4% paraformaldehyde or placed in PBS buffer containing 1% protease inhibitor, facilitating subsequent steps of paraffin embedding or ELISA experiments.
Animal skin tissues were placed in PBS buffer containing 1% protease inhibitors, then homogenized, and centrifuged for supernatants. Cytokine concentrations of supernatants (IL-4, IL-6, TNF-α, and IgE) were measured using ELISA kits (Tsingke) according to the manufacturer's instructions. The absorption at 450 nm was measured by a microplate reader (Thermo Multiskan MK3).

[3] = mouse tissues, HCQ 2 mg/ml topical with 2% carvacrol, 5 days

Compound: CCN(CCO)CCCC(C)Nc1ccnc2cc(Cl)ccc12 (stereo not drawn) [HCQ, hydroxychloroquine]
- inhibition at 100 µM ([1]; 100 μM HCQ): 28.4%
- IC50 ([1]; 1 mM 2-APB, ± 80 mV): 203 ± 10.8 µM
- suppression of serum IgE levels ([2]; HCQ 2 mg/ml topical with 2% carvacrol, 5 days): 60.22 ± 11.26%
- IL-4 levels compared to the model group ([2]; mouse tissues, HCQ 2 mg/ml or DXM 1 mg/ml topical with 2% carvacrol): no significant difference
- inhibition of release of carvacrol-induced IL-6 [2, 3]: 77.09% ± 5.38%
- inhibition of release of carvacrol-induced TNF-α [2, 3]: 88.10% ± 4.12%
